Two compounds from PMC7114135, “Interaction between the Antimalarial Drug Dispiro-Tetraoxanes and Human Serum Albumin: A Combined Study with Spectroscopic Methods and Computational Studies” (ACS Omega, 2020) can be followed below.

The target of the assay is T1, human serum albumin (HSA) (Homo sapiens, UniProt P02768).
T1 construct: gene ALB; fatty-acid-free HSA (Sigma-Aldrich A3782)
The assay is described as follows: intrinsic fluorescence quenching (modified Stern-Volmer, binding constant Kb, […] K), supported by UV-vis, time-resolved fluorescence and CD. As to conditions: read-out: Kb (L mol^-1) (converted).

T1 sequence (P02768 25-609): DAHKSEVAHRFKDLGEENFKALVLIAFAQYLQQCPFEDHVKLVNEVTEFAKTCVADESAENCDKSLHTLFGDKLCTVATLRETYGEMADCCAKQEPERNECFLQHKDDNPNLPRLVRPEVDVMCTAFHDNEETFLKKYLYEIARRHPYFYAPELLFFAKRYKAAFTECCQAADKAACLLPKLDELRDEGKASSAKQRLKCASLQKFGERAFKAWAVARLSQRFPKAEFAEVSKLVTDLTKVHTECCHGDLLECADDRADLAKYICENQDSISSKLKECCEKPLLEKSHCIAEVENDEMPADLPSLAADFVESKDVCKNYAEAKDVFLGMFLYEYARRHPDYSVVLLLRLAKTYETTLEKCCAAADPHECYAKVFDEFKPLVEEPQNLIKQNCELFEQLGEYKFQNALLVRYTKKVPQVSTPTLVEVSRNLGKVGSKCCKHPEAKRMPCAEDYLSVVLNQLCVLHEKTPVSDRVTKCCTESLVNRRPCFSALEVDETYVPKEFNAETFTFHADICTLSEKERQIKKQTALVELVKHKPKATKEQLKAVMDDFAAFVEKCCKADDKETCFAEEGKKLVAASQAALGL

With `O=S(=O)(CCCCl)CN1CCC2(CC1)OOC1(CCCC1)OO2` [TO1], the Kd was 16 µM.

With `CCS(=O)(=O)CN1CCC2(CC1)OOC1(CCCCC1)OO2` [TO2], the Kd was 93.2 µM.
